{
  "source": "patent US20240197701A1",
  "about": "“ANDROGEN RECEPTOR INHIBITION TO TREAT SEPSIS AND SHOCK” (priority 2021, published 2024)",
  "key": {"SARS-COV-2 [1]": {"tested_on": "SARS-COV-2", "conditions": "for Resolution of Symptoms Odds ratio / Viral Clearance Odds ratio: multivariate logistic regression, within 7 days, azithromycin with the listed drug(s), hydroxychloroquine = reference, N = 475; for Resolution of Symptoms Odds ratio: except anosmia, ageusia; for Increase in viral clearance rate: first 7 days of therapy; for Increase in viral clearance rate / Increase in symptom resolution rate: versus control; for Increase in symptom resolution rate: first week of therapy; for Viral clearance at seven days in men: spironolactone compared to dutasteride; for Odds ratio for viral clearance within seven days when used with nitazoxanide: multivariate analysis; for Adverse events: short duration administration"}, "COVID-19 [2]": {"tested_on": "COVID-19", "experiment": "Proxalutamide treatment for hospitalized COVID-19 patients, double-blinded placebo-controlled trial, preliminary report", "type": "in vivo", "conditions": "n = 294"}, "COVID-19 [3]": {"tested_on": "COVID-19", "conditions": "single case, after starting proxalutamide; cited from earlier work"}, "COVID-19 [4]": {"tested_on": "COVID-19", "conditions": "cited from earlier work"}, "SARS-COV-2 [5]": {"tested_on": "SARS-COV-2", "conditions": "cited from earlier work"}, "COVID-19 [6]": {"tested_on": "COVID-19"}, "COVID-19 [7]": {"tested_on": "COVID-19", "conditions": "RECOVERY platform trial; cited from earlier work"}, "[8]": {"conditions": "in vivo; cited from earlier work"}, "COVID-19 [9]": {"tested_on": "COVID-19", "conditions": "5 mg daily, without achieving statistical significance; cited from earlier work"}, "SARS-COV-2 [10]": {"tested_on": "SARS-COV-2", "conditions": "dutasteride 0.5 mg per day, male patients; cited from earlier work"}, "COVID-19 [11]": {"tested_on": "COVID-19", "conditions": "intensive care observational series; cited from earlier work"}},
  "note": "Where two headings read alike, the source gives them in different places.",
  "data": [
    {"compound": "Ivermectin", "values": [
      {"measurement": "Resolution of Symptoms Odds ratio", "setting": "SARS-COV-2 [1]", "result": 1.45},
      {"measurement": "Viral Clearance Odds ratio", "setting": "SARS-COV-2 [1]", "result": 0.32}
    ]},
    {"compound": "CC1(C)C(=O)N(c2ccc(C#N)c(C(F)(F)F)c2F)C(=S)N1c1ccc(CCCc2ncco2)nc1", "note": "[proxalutamide]", "values": [
      {"measurement": "Mortality (%) Day 14", "setting": "COVID-19 [2]; hospitalized COVID-19 patients, proxalutamide 300 mg q.d.", "result": 3.7, "unit": "%"},
      {"measurement": "Discharged (%) Day 14", "setting": "COVID-19 [2]", "result": 89.1, "unit": "%"},
      {"measurement": "Full clinical remission (%) Day 14", "setting": "COVID-19 [2]", "result": 75.9, "unit": "%"},
      {"measurement": "HFO, NIV, or MV use, or death (%) Day 14", "setting": "COVID-19 [2]", "result": 4.8, "unit": "%"},
      {"measurement": "Hospital Length Stay (Days) Mean ± SD", "setting": "COVID-19 [2]", "result": "6.3 ± 5.3", "unit": "days"},
      {"measurement": "Hospital Length Stay (Days) Median (IQR)", "setting": "COVID-19 [2]", "result": 5.0, "unit": "days"},
      {"measurement": "Improvement in clinical status - Ordinary scale (days) One point Mean ± SD", "setting": "COVID-19 [2]", "result": "3.0 ± 5.5", "unit": "days"},
      {"measurement": "Improvement in clinical status - Ordinary scale (days) One point Median (IQR)", "setting": "COVID-19 [2]", "result": 1.0, "unit": "days"},
      {"measurement": "Improvement in clinical status - Ordinary scale (days) Two points Mean ± SD", "setting": "COVID-19 [2]", "result": "5.5 ± 7.1", "unit": "days"},
      {"measurement": "Improvement in clinical status - Ordinary scale (days) Two points Median (IQR)", "setting": "COVID-19 [2]", "result": 3.0, "unit": "days"},
      {"measurement": "New mechanical ventilation (MV) or Death (%) Day 14", "setting": "COVID-19 [2]", "result": 4.4, "unit": "%"},
      {"measurement": "No HFO or NIV use (%) Day 14", "setting": "COVID-19 [2]", "result": 95.2, "unit": "%"},
      {"measurement": "No oxygen use (%) Day 14", "setting": "COVID-19 [2]", "result": 92.5, "unit": "%"},
      {"measurement": "Time to striking symptom resolution and laboratory improvement", "setting": "COVID-19 [3]", "result": "twenty-four"},
      {"measurement": "Reduction of the risk of hospitalization", "setting": "COVID-19 [4]; compared to usual care", "result": 91, "unit": "%"},
      {"measurement": "30-day hospitalization rate", "setting": "COVID-19 [4]; proxalutamide 200 mg for up to seven days, men", "result": 2.2, "unit": "%"},
      {"measurement": "Viral clearance at seven days in men", "setting": "SARS-COV-2 [5]; men", "result": 81, "unit": "%"},
      {"measurement": "Viral clearance at seven days in women", "setting": "SARS-COV-2 [5]; women", "result": 85, "unit": "%"},
      {"measurement": "28-day median ordinal scale score", "setting": "COVID-19 [6]; COVID-19 8-point ordinal scale", "result": 1},
      {"measurement": "14-day median ordinal scale score", "setting": "COVID-19 [6]; COVID-19 8-point ordinal scale, intention-to-treat, proxalutamide 300 mg/day", "result": 1},
      {"measurement": "Median post-randomization time to recovery", "setting": "COVID-19 [6]; alive hospital discharge", "result": 5, "unit": "days"},
      {"measurement": "14-day recovery rate", "setting": "COVID-19 [6]; alive hospital discharge (scores 1, 2), intention-to-treat", "result": 81.4, "unit": "%"},
      {"measurement": "Less likely to die than patients in the control group", "setting": "COVID-19 [6]; during the study period", "result": 84, "unit": "%"},
      {"measurement": "Median hospitalization time (days)", "setting": "COVID-19 [6]; human, in vivo", "result": "eight"},
      {"measurement": "Treatment emergent adverse events", "setting": "COVID-19 [6]; human, in vivo", "result": "limited to diarrhea"},
      {"measurement": "Difference in the proportion of alive hospital discharge", "setting": "COVID-19 [6]; increased until day 11", "result": 75, "unit": "%"},
      {"measurement": "28-day all-cause mortality rate", "setting": "COVID-19 [6]; intention-to-treat", "result": 11.0, "unit": "%"},
      {"measurement": "Hazard ratio for all-cause mortality (death)", "setting": "COVID-19 [6]; over 28 days, versus placebo", "result": 0.16},
      {"measurement": "Risk ratio for death", "setting": "COVID-19 [6]; over 28 days, versus placebo", "result": 0.22},
      {"measurement": "Number needed to treat (NNT) to prevent one death", "setting": "COVID-19 [6]; over twenty-eight days", "result": 3},
      {"measurement": "Adverse events grades 4 or 3", "setting": "COVID-19 [6]; proxalutamide arm", "result": 2.2, "unit": "%"},
      {"measurement": "Diarrhea", "setting": "COVID-19 [6]; proxalutamide arm", "result": 16.1, "unit": "%"},
      {"measurement": "Irritability", "setting": "COVID-19 [6]; proxalutamide arm", "result": 1.3, "unit": "%"},
      {"measurement": "14-day recovery ratio", "setting": "COVID-19 [6]; versus placebo", "result": 2.28},
      {"measurement": "28-day recovery ratio", "setting": "COVID-19 [6]; versus placebo", "result": 1.81},
      {"measurement": "Higher recovery rate than placebo at 28 days", "setting": "COVID-19 [6]; versus placebo", "result": 81, "unit": "%"},
      {"measurement": "Higher recovery rate than placebo at day 14", "setting": "COVID-19 [6]; versus placebo", "result": 128, "unit": "%"}
    ]},
    {"compound": "COc1cc2c(c(OC)c1OC)-c1ccc(OC)c(=O)cc1[C@@H](NC(C)=O)CC2", "note": "[Colchicine]", "values": [
      {"measurement": "28-day mortality rate ratio", "setting": "COVID-19 [7]", "result": 1.01}
    ]},
    {"compound": "CC(C)(C)NC(=O)[C@H]1CC[C@H]2[C@@H]3CC[C@H]4NC(=O)C=C[C@]4(C)[C@H]3CC[C@]12C", "note": "[finasteride]", "values": [
      {"measurement": "Half-life", "setting": "[8]", "result": "six"},
      {"measurement": "Inpatient mortality", "setting": "COVID-19 [9]", "result": "reduced inpatient mortality"}
    ]},
    {"compound": "C[C@]12C=CC(=O)N[C@@H]1CC[C@@H]1[C@@H]2CC[C@]2(C)[C@@H](C(=O)Nc3cc(C(F)(F)F)ccc3C(F)(F)F)CC[C@@H]12", "note": "[dutasteride]", "values": [
      {"measurement": "Viral clearance at seven days", "setting": "SARS-COV-2 [10]", "result": 64.3, "unit": "%"},
      {"measurement": "Increase in viral clearance rate", "setting": "SARS-COV-2 [1]", "result": 320, "unit": "%"},
      {"measurement": "Increase in symptom resolution rate", "setting": "SARS-COV-2 [1]", "result": 70, "unit": "%"},
      {"measurement": "Viral clearance at seven days in men", "setting": "SARS-COV-2 [1]", "result": 21, "unit": "%"},
      {"measurement": "Odds ratio for viral clearance within seven days when used with nitazoxanide", "setting": "SARS-COV-2 [1]; with nitazoxanide", "result": 7.1},
      {"measurement": "Viral clearance at seven days among nitazoxanide male users", "setting": "SARS-COV-2 [1]; nitazoxanide male users", "result": 21, "unit": "%"},
      {"measurement": "Adverse events", "setting": "SARS-COV-2 [1]", "result": "no adverse events noted"},
      {"measurement": "Half-life", "setting": "[8]", "result": "five"}
    ]},
    {"compound": "CC(=O)S[C@@H]1CC2=CC(=O)CC[C@]2(C)[C@H]2CC[C@@]3(C)[C@@H](CC[C@@]34CCC(=O)O4)[C@H]12", "note": "[spironolactone]", "values": [
      {"measurement": "Increase in viral clearance rate", "setting": "SARS-COV-2 [1]", "result": 320, "unit": "%"},
      {"measurement": "Increase in symptom resolution rate", "setting": "SARS-COV-2 [1]", "result": 70, "unit": "%"},
      {"measurement": "Viral clearance at seven days in men", "setting": "SARS-COV-2 [1]", "result": 40, "unit": "%"},
      {"measurement": "Odds ratio for viral clearance within seven days when used with nitazoxanide", "setting": "SARS-COV-2 [1]; with nitazoxanide", "result": 10.1},
      {"measurement": "Adverse events", "setting": "SARS-COV-2 [1]", "result": "no adverse events noted"},
      {"measurement": "Viral clearance at seven days", "setting": "SARS-COV-2 [1]; spironolactone initiated at the time of COVID-19 diagnosis", "result": 34, "unit": "%"},
      {"measurement": "Viral clearance at seven days, added to ivermectin", "setting": "SARS-COV-2 [1]; with ivermectin", "result": 26, "unit": "%"},
      {"measurement": "Viral clearance at seven days, added to nitazoxanide", "setting": "SARS-COV-2 [1]; with nitazoxanide", "result": 42, "unit": "%"}
    ]},
    {"compound": "CCN(CCO)CCCC(C)Nc1ccnc2cc(Cl)ccc12", "note": "(stereo not shown) [Hydroxychloroquine]", "values": [
      {"measurement": "Resolution of Symptoms Odds ratio", "setting": "SARS-COV-2 [1]", "result": 1},
      {"measurement": "Viral Clearance Odds ratio", "setting": "SARS-COV-2 [1]", "result": 1}
    ]},
    {"compound": "CC(=O)Oc1ccccc1C(=O)Nc1ncc([N+](=O)[O-])s1", "note": "[Nitazoxanide]", "values": [
      {"measurement": "Resolution of Symptoms Odds ratio", "setting": "SARS-COV-2 [1]", "result": 2.08},
      {"measurement": "Viral Clearance Odds ratio", "setting": "SARS-COV-2 [1]", "result": 1.88},
      {"measurement": "Association with faster viral clearance", "setting": "SARS-COV-2 [1]; two times a day for 6 days combined with azithromycin", "result": "not associated faster clearance"}
    ]},
    {"compound": "C[C@]12CCC(=O)C=C1C=C[C@@H]1[C@@H]2CC[C@@]2(C)[C@H]1CC[C@@]21CCC(=O)O1", "note": "[Canrenone]", "values": [
      {"measurement": "Fatalities", "setting": "COVID-19 [11]", "result": "reduced fatalities"}
    ]}
  ]
}
